Laboratory results taken from ChEMBL document CHEMBL4043146, “Macrocyclic factor XIa inhibitors” (Bioorg Med Chem Lett, 2017).

What was measured:
Plasma = assay: Anticoagulant activity in human plasma assessed as concentration required to produce 50% increase in activated partial thromboplastin time relative to baseline control; format: functional
Coagulation factor XI = Coagulation factor XI (Homo sapiens, UniProt P03951); assay: Inhibition of human F11a using peptide substrate by spectrophotometry
[1] = Binding affinity to trypsin (unknown origin); parameters: species or system Homo sapiens
Coagulation factor X = Coagulation factor X (Homo sapiens, UniProt P00742); assay: Binding affinity to F10a (unknown origin)
Coagulation factor VII = target: T1, Coagulation factor VII (Homo sapiens, UniProt P08709); assay: Binding affinity to F7a (unknown origin)
T1 sequence (P08709 whole entry): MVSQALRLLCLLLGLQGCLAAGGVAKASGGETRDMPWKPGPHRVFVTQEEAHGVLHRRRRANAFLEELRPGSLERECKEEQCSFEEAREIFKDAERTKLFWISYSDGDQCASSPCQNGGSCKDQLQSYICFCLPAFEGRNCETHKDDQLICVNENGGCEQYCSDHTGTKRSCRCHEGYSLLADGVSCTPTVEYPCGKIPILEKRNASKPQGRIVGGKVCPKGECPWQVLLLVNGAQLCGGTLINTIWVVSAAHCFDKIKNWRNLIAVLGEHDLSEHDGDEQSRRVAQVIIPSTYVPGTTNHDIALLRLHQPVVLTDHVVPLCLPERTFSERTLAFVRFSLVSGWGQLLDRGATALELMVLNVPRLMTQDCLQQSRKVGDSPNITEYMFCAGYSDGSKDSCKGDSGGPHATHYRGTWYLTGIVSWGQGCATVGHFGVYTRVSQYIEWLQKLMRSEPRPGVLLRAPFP

Prothrombin = Prothrombin (Homo sapiens, UniProt P00734); assay: Binding affinity to F2a (unknown origin)

Coagulation factor XI, sequence (P03951 19-387 limits assumed): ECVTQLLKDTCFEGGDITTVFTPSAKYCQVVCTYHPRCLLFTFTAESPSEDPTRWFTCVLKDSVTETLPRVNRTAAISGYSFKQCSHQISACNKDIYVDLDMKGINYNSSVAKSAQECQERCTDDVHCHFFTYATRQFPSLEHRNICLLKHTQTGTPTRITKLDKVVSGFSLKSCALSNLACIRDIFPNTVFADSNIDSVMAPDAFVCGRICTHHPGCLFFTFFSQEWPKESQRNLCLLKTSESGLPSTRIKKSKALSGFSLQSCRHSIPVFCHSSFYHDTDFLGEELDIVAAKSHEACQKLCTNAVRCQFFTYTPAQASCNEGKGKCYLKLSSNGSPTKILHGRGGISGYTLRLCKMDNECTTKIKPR
Coagulation factor XI, sequence (P03951 388-625 limits assumed): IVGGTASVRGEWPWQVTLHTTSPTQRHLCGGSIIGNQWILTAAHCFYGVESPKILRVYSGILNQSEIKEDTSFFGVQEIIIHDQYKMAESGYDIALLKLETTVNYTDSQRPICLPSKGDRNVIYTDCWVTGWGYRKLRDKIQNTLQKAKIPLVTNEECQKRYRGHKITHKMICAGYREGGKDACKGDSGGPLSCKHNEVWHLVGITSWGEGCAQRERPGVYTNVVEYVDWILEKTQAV
Coagulation factor X, sequence (P00742 41-179 limits assumed): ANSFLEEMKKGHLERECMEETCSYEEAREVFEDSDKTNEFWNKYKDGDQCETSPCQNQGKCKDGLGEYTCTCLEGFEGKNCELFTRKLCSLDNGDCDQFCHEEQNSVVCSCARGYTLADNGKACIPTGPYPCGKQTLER
Coagulation factor X, sequence (P00742 235-488 limits assumed): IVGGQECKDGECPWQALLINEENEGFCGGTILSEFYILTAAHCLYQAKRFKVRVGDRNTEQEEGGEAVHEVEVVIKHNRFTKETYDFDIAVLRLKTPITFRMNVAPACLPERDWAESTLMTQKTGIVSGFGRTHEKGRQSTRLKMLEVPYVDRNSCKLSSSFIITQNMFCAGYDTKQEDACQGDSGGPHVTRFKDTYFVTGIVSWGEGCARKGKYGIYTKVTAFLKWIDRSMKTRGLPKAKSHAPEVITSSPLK

Structure (SMILES)	Ki (Coagulation factor XI) [nM]	Activity (Plasma) [µM]	other results
COC(=O)Nc1ccc2c(c1)CCCCc1cccc(c1)C[C@H](NC(=O)/C=C/c1cc(Cl)ccc1-n1cnnn1)c1nc-2c(Cl)[nH]1	–	34	–
COC(=O)Nc1ccc2c(c1)CNC(=O)c1cccc(c1)C[C@H](NC(=O)/C=C/c1cc(Cl)ccc1-n1cnnn1)c1nc-2c[nH]1	500	–	–
COC(=O)Nc1ccc2c(c1)CNC(=O)c1ccc(cc1)C[C@H](NC(=O)/C=C/c1cc(Cl)ccc1-n1cnnn1)c1nc-2c[nH]1	6400	–	–
COC(=O)Nc1ccc2c(c1)NC(=O)CCc1cccc(c1)C[C@H](NC(=O)/C=C/c1cc(Cl)ccc1-n1cnnn1)c1nc-2c[nH]1	1.5	2.1	–
COC(=O)Nc1ccc2c(c1)CNC(=O)c1cccc(c1)C[C@H](NC(=O)/C=C/c1cc(Cl)ccc1-n1cnnn1)c1nc-2c(Cl)[nH]1	92	–	–
COC(=O)Nc1ccc2c(c1)CCCCc1cccc(c1)C[C@H](NC(=O)/C=C/c1cc(Cl)ccc1-n1cnnn1)c1nc-2c[nH]1	17	23	–

More lines, in order of falling Ki (Coagulation factor XI), values ahead:

Ki (Coagulation factor XI) [nM]	Structure (SMILES)	Activity (Plasma) [µM]	other results
0.53	COC(=O)Nc1ccc2c(c1)NC(=O)CCc1cc(ccc1F)C[C@H](NC(=O)/C=C/c1cc(Cl)ccc1-n1cnnn1)c1nc-2c[nH]1	1.4	–
0.32	COC(=O)Nc1ccc2c(c1)NC(=O)CCc1cccc(n1)C[C@H](NC(=O)/C=C/c1cc(Cl)ccc1-n1cnnn1)c1nc-2c[nH]1	0.27 to 0.4	–
0.02	COC(=O)Nc1ccc2c(c1)NC(=O)CCc1nc(ccc1F)C[C@H](NC(=O)/C=C/c1cc(Cl)ccc1-n1cnnn1)c1nc-2c[nH]1	0.27	Ki [1]: 670 nM; Ki (Coagulation factor X): 1400 nM; Ki (Coagulation factor VII): 1100 nM; Ki (Prothrombin): > 13000 nM
